Assay results reported in PMC2997884 (Molecular pharmaceutics, 2010).
Read-outs that look alike come from different tables or passages of the source. Values belong to the compound of their own block, whether it stands above or below them. Where a SMILES comes first, the peptide text is derived from it. [ ]: non-standard residue; d: D form. The star is where a group is joined. ξ: configuration not given here. pNA = O=[N+]([O-])c1ccc(N*)cc1; ξP = O=C(O)C1CCCN1

Assays:
chymotrypsin = settings: N-acetyltryptophanyl-X substrates of chymotrypsin; ref Bender and Kezdy[14]; cited from earlier work
hVACVase [1] = molecular target: T1, hVACVase (Homo sapiens, UniProt Q86WA6); settings: cited from earlier work; for specific activity: hVACVase substrate; for Vmax / Km: hVACVase
T1 sequence (Q86WA6 38-291): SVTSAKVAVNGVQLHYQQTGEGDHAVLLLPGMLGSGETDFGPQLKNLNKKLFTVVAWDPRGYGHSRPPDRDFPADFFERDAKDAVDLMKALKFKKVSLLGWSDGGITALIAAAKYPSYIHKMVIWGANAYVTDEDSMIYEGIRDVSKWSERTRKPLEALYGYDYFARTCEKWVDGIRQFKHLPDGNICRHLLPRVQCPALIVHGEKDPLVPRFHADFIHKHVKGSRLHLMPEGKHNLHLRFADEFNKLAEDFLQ

hVACVase [2] = molecular target: T1, hVACVase; experiment: hVACVase-mediated hydrolysis; settings: 50 mM HEPES pH 7.4, 37°C, 6×His-tagged hVACVase for Val-3-APG; for kcat: calculated from Vmax/[enzyme]0; for Km / Vmax: mean ± SEM, Phe-OMe n=2, others n=3
[3] = Hydrolysis in pH 7.4 HEPES buffer; format: physicochemical; settings: for t1/2 (estimated half-life): pH 7.4 HEPES buffer, 37 °C, mean ± SEM, esters n=3, Val-3-APG n=1 (up to 800 h)
hVACVase [4] = molecular target: T1, hVACVase; settings: hVACVase-mediated hydrolysis; previously published; ref Sun et al.[12]; cited from earlier work

Structure (SMILES): CC(=O)N[C@@H](Cc1c[nH]c2ccccc12)C(=O)Oc1ccc([N+](=O)[O-])cc1 [-OPNP]
- Km (chymotrypsin): 2 µM
- kcat (chymotrypsin): 0.508 s⁻¹

Structure (SMILES): NCCCC[C@H](N)C(=O)Nc1ccc([N+](=O)[O-])cc1 [Lys-p-NA]
- hydrolytic activity of hVACVase toward amides (hVACVase [1]): does not exhibit significant hydrolytic activity

- kcat (hVACVase [2]): 60 ± 3 s⁻¹
- Km (hVACVase [2]): 60 ± 15 µM
- Vmax (hVACVase [2]): 125 ± 7 nmol/min/µg
- t1/2 (estimated half-life) [3]: 14.3 ± 0.127 h
Structure (SMILES): CC(C)[C@H](N)C(=O)OCc1ccccc1.Cl [Val-OBn, L-valine benzyl ester hydrochloride]

- t1/2 (estimated half-life) [3]: 3.833 ± 0.108 h
Structure (SMILES): N=C(N)Nc1cccc(COC(=O)[C@@H](N)Cc2ccccc2)c1 [Phe-3-HPG]
- Km (hVACVase [4]): 207 ± 16 µM
- Vmax (hVACVase [4]): 718 ± 16 nmol/min/µg
- kcat (hVACVase [4]): 345 ± 8 s⁻¹

- kcat (hVACVase [2]): 395 ± 26 s⁻¹
- Km (hVACVase [2]): 99 ± 26 µM
- Vmax (hVACVase [2]): 822 ± 54 nmol/min/µg
- t1/2 (estimated half-life) [3]: 6.083 ± 0.157 h
Structure (SMILES): Cl.N[C@@H](Cc1ccccc1)C(=O)OCc1ccccc1 [Phe-OBn, L-phenylalanine benzyl ester hydrochloride]
- specific activity (hVACVase [1]): 358.3 units/mg

Structure (SMILES): CC(C)C(N)C(=O)OCC1OC(n2cc(F)c(=O)[nH]c2=O)CC1O (stereo not shown) [valine 5’-floxuridine]
- Vmax (hVACVase [1]): 148 nmol/min/µg

Structure (SMILES): CC(C)[C@H](N)C(=O)Nc1ccc([N+](=O)[O-])cc1 [Val-p-NA]
- hydrolytic activity of hVACVase toward amides (hVACVase [1]): does not exhibit significant hydrolytic activity

- kcat (hVACVase [2]): 130 ± 2 s⁻¹
- Km (hVACVase [2]): 14 ± 1 µM
- Vmax (hVACVase [2]): 272 ± 3 nmol/min/µg
- t1/2 (estimated half-life) [3]: 6.872 ± 0.198 h
Structure (SMILES): Br.CC(C)[C@H](N)C(=O)OCc1ccc([N+](=O)[O-])cc1 [valine p-nitrobenzyl ester, L-Valine p-nitrobenzyl ester hydrobromide]

Structure (SMILES): CC(=O)N[C@@H](Cc1c[nH]c2ccccc12)C(N)=O [-NH2]
- Km (chymotrypsin): 5000 µM
- kcat (chymotrypsin): 0.0006 s⁻¹

Structure (SMILES): NCC(=O)N1CCCC1C(=O)Nc1ccc([N+](=O)[O-])cc1 (stereo not drawn) [Gly-Pro-p-NA] (H-Gly-[ξP]-pNA)
- hydrolytic activity of hVACVase toward amides (hVACVase [1]): does not exhibit significant hydrolytic activity

- t1/2 (estimated half-life) [3]: 8.115 ± 0.11 h
Structure (SMILES): CC(C)C(N)C(=O)OCc1cccc(NC(=N)N)c1 (stereo not shown) [Val-3-HPG]
- Km (hVACVase [4]): 46 ± 5 µM
- Vmax (hVACVase [4]): 321 ± 9 nmol/min/µg
- kcat (hVACVase [4]): 154 ± 4 s⁻¹

Structure (SMILES): CC(C)(C)OC(=O)[C@@H](N)Cc1ccccc1 [phenylalanine t-butyl ester]
- hVACVase substrate or not (hVACVase [1]): not a substrate

Structure (SMILES): CCOC(=O)[C@H](Cc1c[nH]c2ccccc12)NC(C)=O [-OEt]
- Km (chymotrypsin): 97 µM
- kcat (chymotrypsin): 0.448 s⁻¹

Structure (SMILES): O=C(Nc1ccc([N+](=O)[O-])cc1)[C@@H]1CCCN1 [Pro-p-NA]
- hydrolytic activity of hVACVase toward amides (hVACVase [1]): does not exhibit significant hydrolytic activity

- kcat (hVACVase [2]): 93 ± 4 s⁻¹
- Km (hVACVase [2]): 6700 ± 560 µM
- Vmax (hVACVase [2]): 193 ± 8 nmol/min/µg
- t1/2 (estimated half-life) [3]: 16.773 ± 0.433 h
Structure (SMILES): CCOC(=O)[C@@H](N)Cc1ccccc1.Cl [Phe-OEt, L-phenylalanine ethyl ester hydrochloride]
- specific activity (hVACVase [1]): 75.3 units/mg

Structure (SMILES): N[C@@H](Cc1ccccc1)C(=O)Nc1ccc([N+](=O)[O-])cc1 [Phe-p-NA]
- hydrolytic activity of hVACVase toward amides (hVACVase [1]): does not exhibit significant hydrolytic activity

Structure (SMILES): COC(=O)[C@H](Cc1c[nH]c2ccccc12)NC(C)=O [-OMe]
- Km (chymotrypsin): 95 µM
- kcat (chymotrypsin): 0.462 s⁻¹

Structure (SMILES): CC(C)C(N)C(=O)OC1CC(n2cc(F)c(=O)[nH]c2=O)OC1CO (stereo not shown) [valine 3’-floxuridine ester]
- Vmax (hVACVase [1]): 33 nmol/min/µg

- half-life ([3]; HEPES buffer, pH 7.4): 12.37 ± 0.0917 h
Structure (SMILES): CC(C)[C@H](N)C(=O)OCCOCn1cnc2c(=O)[nH]c(N)nc21 [valacyclovir]
- Km (hVACVase [1]): 190 µM
- Km (hVACVase [4]): 68 ± 4 µM
- Vmax (hVACVase [4]): 120 ± 2 nmol/min/µg
- kcat (hVACVase [4]): 58 ± 1 s⁻¹

Structure (SMILES): CC(C)[C@H](N)C(=O)OCC(CO)OCn1cnc2c(=O)nc(N)[nH]c21 (stereo partly shown) [valganciclovir]
- Km (hVACVase [1]): 1900 µM

Structure (SMILES): CC(C)C[C@H](N)C(=O)Nc1ccc([N+](=O)[O-])cc1 [Leu-p-NA]
- hydrolytic activity of hVACVase toward amides (hVACVase [1]): does not exhibit significant hydrolytic activity
